Assays:
[1] = test system: SC-β cells; assay: In vitro SC-β cell function screen: stimulation index of SC-β cells generated with the agent; assay type: cell-based, human; settings: FIG. 1A
Protocol: Stimulation index=[insulin@20 mM glucose]/[insulin@2 mM glucose]. Relative Stim Index=Stim Index/Stim Index of Control.
FIG. 3 is a schematic illustration depicting an overview of the chemicals used and approach for the initial screen.

[2] = test system: beta cells; settings: Table 1, background knowledge on the screened compounds; cited from earlier work
[3] = biological target: PDGFRβ (Homo sapiens, UniProt P09619); settings: cited from earlier work
[4] = test system: BMP4-induced phosphorylation of Smads 1, 5 and 8; settings: HEK293 cells; cited from earlier work
[5] = test system: AMPK; settings: cited from earlier work
[6] = biological target: KDR (VEGFR-2) (Homo sapiens, UniProt P35968); settings: cited from earlier work
[7] = test system: SC-β cells; assay: In vivo function of SC-β cells generated with the agents, after transplantation into mice
From the text: FIG. 4B is a Table quantifying the improvement in stimulation index and mean 30′ insulin post injection illustrated in FIG. 4A.
FIG. 5B is a Table quantifying the improvement in stimulation index and mean 30′ insulin post injection illustrated in FIG. 5A.

[8] = biological target: T1, ALK5 (Homo sapiens, UniProt P36897); settings: cited from earlier work
T1 sequence (P36897 34-503): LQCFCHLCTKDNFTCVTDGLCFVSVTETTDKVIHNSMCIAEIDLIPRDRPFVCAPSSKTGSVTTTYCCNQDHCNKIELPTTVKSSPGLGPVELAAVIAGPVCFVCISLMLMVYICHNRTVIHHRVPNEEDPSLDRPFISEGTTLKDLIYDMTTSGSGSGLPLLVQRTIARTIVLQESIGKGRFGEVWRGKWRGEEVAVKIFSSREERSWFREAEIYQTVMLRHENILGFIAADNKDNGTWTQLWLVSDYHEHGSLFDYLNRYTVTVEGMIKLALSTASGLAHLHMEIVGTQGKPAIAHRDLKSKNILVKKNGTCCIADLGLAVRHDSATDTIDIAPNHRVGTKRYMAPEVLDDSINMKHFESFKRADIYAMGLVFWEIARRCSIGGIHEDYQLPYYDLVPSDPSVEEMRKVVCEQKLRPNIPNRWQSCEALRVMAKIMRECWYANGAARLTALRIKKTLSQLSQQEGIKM

[9] = test system: p38a, p38b, p38d, JNK1, EGFR, MAPKAPK2, MKK6, ERK2, PKC, PKA, PKD, CDC2, and CaMKII; settings: relative to TGFRI kinase (ALK5); cited from earlier work
[10] = biological target: TGFRII (Homo sapiens, UniProt P37173); settings: relative to TGFRI kinase (ALK5); cited from earlier work
TGFRII, sequence (P37173 23-567): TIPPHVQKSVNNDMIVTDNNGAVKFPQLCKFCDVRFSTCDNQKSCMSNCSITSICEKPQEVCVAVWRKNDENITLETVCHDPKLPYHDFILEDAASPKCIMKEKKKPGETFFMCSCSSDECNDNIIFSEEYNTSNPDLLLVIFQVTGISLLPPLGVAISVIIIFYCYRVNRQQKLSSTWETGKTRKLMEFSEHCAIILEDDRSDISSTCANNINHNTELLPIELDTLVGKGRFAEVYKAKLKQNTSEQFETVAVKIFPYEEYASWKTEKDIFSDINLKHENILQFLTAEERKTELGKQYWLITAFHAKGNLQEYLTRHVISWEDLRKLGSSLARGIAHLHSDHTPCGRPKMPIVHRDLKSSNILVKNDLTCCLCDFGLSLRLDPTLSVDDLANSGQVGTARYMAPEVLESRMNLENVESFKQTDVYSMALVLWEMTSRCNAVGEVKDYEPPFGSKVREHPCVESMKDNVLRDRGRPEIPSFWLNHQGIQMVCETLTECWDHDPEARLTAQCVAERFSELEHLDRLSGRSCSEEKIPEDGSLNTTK

PDGFRβ, sequence (P09619 33-1106, species assumed): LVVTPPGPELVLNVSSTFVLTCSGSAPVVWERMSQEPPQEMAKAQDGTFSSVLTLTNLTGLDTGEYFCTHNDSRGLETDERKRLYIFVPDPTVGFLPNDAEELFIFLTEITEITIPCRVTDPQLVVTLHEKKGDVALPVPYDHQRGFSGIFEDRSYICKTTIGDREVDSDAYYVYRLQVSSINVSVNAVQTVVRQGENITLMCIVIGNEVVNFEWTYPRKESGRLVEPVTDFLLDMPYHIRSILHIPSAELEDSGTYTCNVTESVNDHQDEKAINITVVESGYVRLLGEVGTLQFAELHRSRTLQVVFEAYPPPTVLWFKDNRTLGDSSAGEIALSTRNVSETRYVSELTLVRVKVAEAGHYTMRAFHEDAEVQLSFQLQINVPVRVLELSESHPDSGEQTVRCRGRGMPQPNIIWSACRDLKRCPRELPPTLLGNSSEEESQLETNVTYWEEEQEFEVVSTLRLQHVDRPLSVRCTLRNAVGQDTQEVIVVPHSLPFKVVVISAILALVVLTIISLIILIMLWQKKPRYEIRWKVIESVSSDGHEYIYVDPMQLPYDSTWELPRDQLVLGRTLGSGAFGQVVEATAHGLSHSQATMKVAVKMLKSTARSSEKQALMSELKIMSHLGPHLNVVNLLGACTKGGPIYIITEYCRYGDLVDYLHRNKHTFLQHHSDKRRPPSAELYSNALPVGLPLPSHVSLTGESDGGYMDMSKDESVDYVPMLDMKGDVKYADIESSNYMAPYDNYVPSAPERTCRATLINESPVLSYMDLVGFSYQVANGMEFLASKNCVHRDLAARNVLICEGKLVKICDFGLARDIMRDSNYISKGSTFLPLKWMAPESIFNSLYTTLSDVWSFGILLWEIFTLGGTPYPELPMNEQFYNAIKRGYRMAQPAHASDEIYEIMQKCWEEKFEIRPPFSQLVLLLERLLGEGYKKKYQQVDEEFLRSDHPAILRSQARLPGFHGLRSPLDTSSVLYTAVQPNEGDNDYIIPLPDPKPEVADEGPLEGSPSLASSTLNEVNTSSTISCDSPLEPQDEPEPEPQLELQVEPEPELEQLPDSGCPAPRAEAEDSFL
KDR (VEGFR-2), sequence (P35968 20-1356, species assumed): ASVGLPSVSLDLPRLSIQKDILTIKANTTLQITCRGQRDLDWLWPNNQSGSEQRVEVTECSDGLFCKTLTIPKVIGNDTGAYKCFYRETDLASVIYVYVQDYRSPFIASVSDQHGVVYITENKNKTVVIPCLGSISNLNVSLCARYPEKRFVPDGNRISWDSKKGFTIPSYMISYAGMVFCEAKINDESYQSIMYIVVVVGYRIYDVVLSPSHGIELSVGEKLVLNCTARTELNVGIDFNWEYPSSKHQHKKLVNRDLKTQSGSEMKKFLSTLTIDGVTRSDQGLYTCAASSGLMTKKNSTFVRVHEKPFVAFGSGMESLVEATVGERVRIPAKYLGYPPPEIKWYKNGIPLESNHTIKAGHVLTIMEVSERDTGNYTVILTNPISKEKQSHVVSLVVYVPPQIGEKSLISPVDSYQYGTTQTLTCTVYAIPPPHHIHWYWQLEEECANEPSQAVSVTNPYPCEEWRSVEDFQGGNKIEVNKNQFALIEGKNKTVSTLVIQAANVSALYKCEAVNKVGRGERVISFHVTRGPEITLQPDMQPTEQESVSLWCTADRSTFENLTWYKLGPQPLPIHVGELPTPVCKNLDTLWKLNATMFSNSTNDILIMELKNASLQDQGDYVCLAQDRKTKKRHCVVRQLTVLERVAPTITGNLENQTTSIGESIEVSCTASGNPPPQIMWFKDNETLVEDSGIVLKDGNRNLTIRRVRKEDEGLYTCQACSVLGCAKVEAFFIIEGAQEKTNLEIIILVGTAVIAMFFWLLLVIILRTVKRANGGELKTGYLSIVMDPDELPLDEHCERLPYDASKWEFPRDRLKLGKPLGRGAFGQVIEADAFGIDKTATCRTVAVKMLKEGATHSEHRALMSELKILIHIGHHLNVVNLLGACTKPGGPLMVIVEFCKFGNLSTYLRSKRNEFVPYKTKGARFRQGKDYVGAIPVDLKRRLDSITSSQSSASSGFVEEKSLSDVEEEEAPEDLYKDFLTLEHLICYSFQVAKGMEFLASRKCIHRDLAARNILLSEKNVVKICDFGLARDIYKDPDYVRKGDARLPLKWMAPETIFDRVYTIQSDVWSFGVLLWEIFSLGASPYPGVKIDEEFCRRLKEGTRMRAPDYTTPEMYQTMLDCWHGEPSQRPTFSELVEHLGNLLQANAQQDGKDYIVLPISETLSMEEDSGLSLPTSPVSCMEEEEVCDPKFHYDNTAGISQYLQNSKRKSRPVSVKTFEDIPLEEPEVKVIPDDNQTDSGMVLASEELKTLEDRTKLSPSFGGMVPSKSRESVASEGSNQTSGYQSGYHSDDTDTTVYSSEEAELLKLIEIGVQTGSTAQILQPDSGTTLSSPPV

| Structure (SMILES) | Stimulation index of resulting SC-β cells relative to control SC-β cells ([1]; concentration not given) | Effect on Beta Cells [2] | also measured |
| --- | --- | --- | --- |
| Oc1ccc(-c2nc(-c3ccc(F)cc3)c(-c3ccncc3)[nH]2)cc1 [SB202190] | worse stimulation indices | Reduced apoptosis in beta cells |  |
| Cc1cccc(-c2nn(C(=S)Nc3ccccc3)cc2-c2ccnc3ccccc23)n1 [A83-01] | worse stimulation indices | Reduces apoptosis of pancreatic beta cells, increases insulin |  |
| CC(C)Oc1ccc(-c2cnc3c(-c4ccnc5ccccc45)cnn3c2)cc1 [DMH-1, 4-[6-[4-(1-Methylethoxy)phenyl]pyrazolo[1,5-a]pyrimidin-3-yl]-quinoline] |  | Aids differentiation of zebrafish beta cells | Inhibition of PDGFRβ receptors [3]: no detectable inhibition; Effect on BMP4-induced phosphorylation of Smads 1, 5 and 8 [4]: block BMP4-induced phosphorylation of Smads 1, 5 and 8; Stimulation index of resulting SC-β cells relative to control SC-β cells ([1]; agent 1 μM, Stimulation index=[insulin@20 mM glucose]/[insulin@2 mM glucose]): greater stimulation index; Inhibition of AMPK [5]: no detectable inhibition; Inhibition of KDR (VEGFR-2) [6]: no detectable inhibition; In vivo function of SC-β cells generated using the agent(s) ([7]; 2 weeks post-transplantation into mice, FIG. 4A): improved in vivo function; In vivo function of SC-β cells generated using the agent(s) ([7]; 4 weeks post-transplantation into mice, FIG. 5A): improved in vivo function; Inhibition of ALK5 [8]: no detectable inhibition |
| NC(=O)c1ccc(-c2nc(-c3ccc4c(c3)OCO4)c(-c3ccccn3)[nH]2)cc1 [SB431542, 4-[4-(1,3-benzodioxol-5-yl)-5-(2-pyridinyl)-111-imidazol-2-yl]benzamide] |  | Reduces apoptosis of pancreatic beta cells, increases insulin |  |
| C[S+]([O-])c1ccc(-c2nc(-c3ccc(F)cc3)c(-c3ccncc3)[nH]2)cc1 (stereo not drawn) [SB203580] | worse stimulation indices | Reduced apoptosis in beta cells |  |
| Fc1ccc(Cl)cc1-c1nc(Nc2ccncc2)c2nccnc2n1 [SD208] |  | Helps maintain growth of human pancreatic cancer cells | Specificity over members of a panel of related protein kinases [9]: at least 17 fold; Specificity against TGFRII [10]: > 100 fold |
| N#CC(=C(/N)Sc1ccccc1N)/C(C#N)=C(\N)Sc1ccccc1N [U0126] | worse stimulation indices | Reduced apoptosis in beta cells |  |
